In the NIST ThermoML archive (doi:10.1021/je050414d):

Assay: xn = mol fraction of the nth substance listed
Details: 101 kPa, Liquid; for viscosity: Capillary tube (Ostwald / Ubbelohde) method

CCOC(=O)OCC [diethyl carbonate] + Cc1ccccc1
Details	mass density [kg/m3]	viscosity [mPa·s]
298.15 K, x1 = 0.1014	874.5	0.573
298.15 K, x1 = 0.1984	885.94	0.59
298.15 K, x1 = 0.3006	897.67	0.608
298.15 K, x1 = 0.4024	908.97	0.627
298.15 K, x1 = 0.5212	921.72	0.649
298.15 K, x1 = 0.6022	930.18	0.664
298.15 K, x1 = 0.7016	940.28	0.684
298.15 K, x1 = 0.7995	949.95	0.702
298.15 K, x1 = 0.8975	959.36	0.722
298.15 K, x1 = 1	968.97	0.746
303.15 K, x1 = 0.1014	870.46	0.542
303.15 K, x1 = 0.1984	881.62	0.557
303.15 K, x1 = 0.3006	893.06	0.573
303.15 K, x1 = 0.4024	904.06	0.59
303.15 K, x1 = 0.5212	916.47	0.609
303.15 K, x1 = 0.6022	924.71	0.622
303.15 K, x1 = 0.7016	934.52	0.639
303.15 K, x1 = 0.7995	943.93	0.657
303.15 K, x1 = 0.8975	953.08	0.674
303.15 K, x1 = 1	962.39	0.695
313.15 K, x1 = 0.1014	860.95	0.484
313.15 K, x1 = 0.1984	872.04	0.497
313.15 K, x1 = 0.3006	883.39	0.51
313.15 K, x1 = 0.4024	894.33	0.523
313.15 K, x1 = 0.5212	906.66	0.539
313.15 K, x1 = 0.6022	914.85	0.55
313.15 K, x1 = 0.7016	924.6	0.564
313.15 K, x1 = 0.7995	933.95	0.579
313.15 K, x1 = 0.8975	943.04	0.593
313.15 K, x1 = 1	952.32	0.61
323.15 K, x1 = 0.1014	850.49	0.434
323.15 K, x1 = 0.1984	861.33	0.445
323.15 K, x1 = 0.3006	872.43	0.457
323.15 K, x1 = 0.4024	883.11	0.468
323.15 K, x1 = 0.5212	895.17	0.481
323.15 K, x1 = 0.6022	903.16	0.491
323.15 K, x1 = 0.7016	912.68	0.503
323.15 K, x1 = 0.7995	921.81	0.515
323.15 K, x1 = 0.8975	930.72	0.527
323.15 K, x1 = 1	939.78	0.541
333.15 K, x1 = 0.1014	841.39	0.394
333.15 K, x1 = 0.1984	852.01	0.403
333.15 K, x1 = 0.3006	862.85	0.413
333.15 K, x1 = 0.4024	873.3	0.422
333.15 K, x1 = 0.5212	885.09	0.434
333.15 K, x1 = 0.6022	892.88	0.442
333.15 K, x1 = 0.7016	902.2	0.452
333.15 K, x1 = 0.7995	911.11	0.461
333.15 K, x1 = 0.8975	919.81	0.471
333.15 K, x1 = 1	928.69	0.483
343.15 K, x1 = 0.1014	831.46	0.358
343.15 K, x1 = 0.1984	841.79	0.365
343.15 K, x1 = 0.3006	852.32	0.373
343.15 K, x1 = 0.4024	862.48	0.382
343.15 K, x1 = 0.5212	873.94	0.391
343.15 K, x1 = 0.6022	881.51	0.398
343.15 K, x1 = 0.7016	890.57	0.407
343.15 K, x1 = 0.7995	899.24	0.415
343.15 K, x1 = 0.8975	907.69	0.425
343.15 K, x1 = 1	916.33	0.435
353.15 K, x1 = 0.1014	821.53	0.318
353.15 K, x1 = 0.1984	831.67	0.326
353.15 K, x1 = 0.3006	842.02	0.334
353.15 K, x1 = 0.4024	852.02	0.342
353.15 K, x1 = 0.5212	863.29	0.352
353.15 K, x1 = 0.6022	870.74	0.358
353.15 K, x1 = 0.7016	879.66	0.367
353.15 K, x1 = 0.7995	888.2	0.375
353.15 K, x1 = 0.8975	896.52	0.384
353.15 K, x1 = 1	905.02	0.393
363.15 K, x1 = 0.1014	808.79	0.293
363.15 K, x1 = 0.1984	819.07	0.3
363.15 K, x1 = 0.3006	829.57	0.306
363.15 K, x1 = 0.4024	839.71	0.313
363.15 K, x1 = 0.5212	851.16	0.322
363.15 K, x1 = 0.6022	858.77	0.328
363.15 K, x1 = 0.7016	867.85	0.336
363.15 K, x1 = 0.7995	876.55	0.343
363.15 K, x1 = 0.8975	885.04	0.351
363.15 K, x1 = 1	893.71	0.358
